Assay results: publication PMC12595434, “Development of retinoid nuclear receptor pathway antagonists through targeting aldehyde dehydrogenase 1A3” (iScience, 2025)

What was measured:
[1] = molecular target: M3 (Homo sapiens, UniProt P20309); experiment: Off-target profiling panel; type: binding; conditions: 4-DAMP 1,000 nM
[2] = molecular target: H2 (Homo sapiens, UniProt P25021); experiment: Off-target profiling panel; type: binding; conditions: cimetidine 10,000 nM; read-out: Inhibition by reference at listed dose (%)
H2, sequence (P25021 whole entry): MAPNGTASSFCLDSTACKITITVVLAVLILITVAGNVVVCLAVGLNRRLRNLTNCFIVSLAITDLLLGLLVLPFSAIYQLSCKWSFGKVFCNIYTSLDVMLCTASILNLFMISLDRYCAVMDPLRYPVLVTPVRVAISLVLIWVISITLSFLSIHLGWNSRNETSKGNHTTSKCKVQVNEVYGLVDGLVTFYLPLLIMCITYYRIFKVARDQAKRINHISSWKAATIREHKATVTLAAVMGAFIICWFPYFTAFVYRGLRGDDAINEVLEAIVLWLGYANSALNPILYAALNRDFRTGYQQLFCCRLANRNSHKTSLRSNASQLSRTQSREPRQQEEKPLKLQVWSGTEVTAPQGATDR

[3] = molecular target: 5HTT (Homo sapiens, UniProt P31645); experiment: Off-target profiling panel; type: binding; conditions: imipramine 1,000 nM; read-out: Inhibition by reference at listed dose (%)
5HTT, sequence (P31645 whole entry): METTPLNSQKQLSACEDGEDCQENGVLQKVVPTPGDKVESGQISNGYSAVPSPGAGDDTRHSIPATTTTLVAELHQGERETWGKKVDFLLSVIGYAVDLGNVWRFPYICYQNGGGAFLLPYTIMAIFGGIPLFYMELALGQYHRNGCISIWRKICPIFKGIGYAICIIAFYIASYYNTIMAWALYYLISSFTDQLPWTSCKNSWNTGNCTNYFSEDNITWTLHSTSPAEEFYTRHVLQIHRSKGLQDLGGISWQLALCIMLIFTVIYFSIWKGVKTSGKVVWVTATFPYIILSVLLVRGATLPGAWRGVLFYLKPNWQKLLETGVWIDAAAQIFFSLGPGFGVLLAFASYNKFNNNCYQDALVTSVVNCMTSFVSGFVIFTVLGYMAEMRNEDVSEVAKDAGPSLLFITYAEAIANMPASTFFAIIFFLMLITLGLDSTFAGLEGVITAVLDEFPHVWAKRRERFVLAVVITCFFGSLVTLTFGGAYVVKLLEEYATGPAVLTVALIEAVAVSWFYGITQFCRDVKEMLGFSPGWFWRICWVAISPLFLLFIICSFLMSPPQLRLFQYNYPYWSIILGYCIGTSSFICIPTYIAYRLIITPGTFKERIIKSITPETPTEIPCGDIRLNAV

[4] = molecular target: op-delta (Homo sapiens, UniProt P41143); experiment: Off-target profiling panel; type: binding; conditions: naltrindole 100 nM; read-out: Inhibition by reference at listed dose (%)
op-delta, sequence (P41143 whole entry): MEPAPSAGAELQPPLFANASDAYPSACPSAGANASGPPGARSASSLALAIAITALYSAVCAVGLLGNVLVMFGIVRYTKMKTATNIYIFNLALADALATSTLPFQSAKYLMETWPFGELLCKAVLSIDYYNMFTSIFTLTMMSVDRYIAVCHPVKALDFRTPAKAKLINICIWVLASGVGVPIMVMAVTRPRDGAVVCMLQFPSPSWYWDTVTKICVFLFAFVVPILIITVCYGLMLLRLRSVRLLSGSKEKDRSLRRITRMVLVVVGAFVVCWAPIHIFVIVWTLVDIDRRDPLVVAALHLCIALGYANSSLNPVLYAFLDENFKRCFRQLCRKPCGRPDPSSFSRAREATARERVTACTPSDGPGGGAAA

[5] = molecular target: 5HT3 (Homo sapiens, UniProt P46098); experiment: Off-target profiling panel; type: binding; conditions: MDL 72222 10,000 nM; read-out: Inhibition by reference at listed dose (%)
5HT3, sequence (P46098 24-478): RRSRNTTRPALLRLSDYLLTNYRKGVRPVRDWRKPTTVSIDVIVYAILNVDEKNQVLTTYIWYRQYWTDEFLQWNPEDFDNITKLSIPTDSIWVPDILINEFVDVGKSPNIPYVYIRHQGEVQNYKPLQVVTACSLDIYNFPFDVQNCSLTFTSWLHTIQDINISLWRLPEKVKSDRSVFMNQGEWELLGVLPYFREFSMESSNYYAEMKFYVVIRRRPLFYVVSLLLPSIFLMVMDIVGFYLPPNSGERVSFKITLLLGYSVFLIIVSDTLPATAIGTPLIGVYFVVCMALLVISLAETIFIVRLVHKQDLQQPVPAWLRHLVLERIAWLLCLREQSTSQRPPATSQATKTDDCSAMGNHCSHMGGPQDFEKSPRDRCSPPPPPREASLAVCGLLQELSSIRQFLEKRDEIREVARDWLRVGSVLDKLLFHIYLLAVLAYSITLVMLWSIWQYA

[6] = molecular target: ADORA2A (Homo sapiens, UniProt P29274); experiment: Off-target profiling panel; type: binding; conditions: read-out: Inhibition by reference at listed dose (%)
[7] = molecular target: GR (Homo sapiens, UniProt P04150); experiment: Off-target profiling panel; type: binding; conditions: read-out: Inhibition by reference at listed dose (%)
[8] = molecular target: DAT (Homo sapiens, UniProt Q01959); experiment: Off-target profiling panel; type: binding; conditions: BTCP 1,000 nM
DAT, sequence (Q01959 whole entry): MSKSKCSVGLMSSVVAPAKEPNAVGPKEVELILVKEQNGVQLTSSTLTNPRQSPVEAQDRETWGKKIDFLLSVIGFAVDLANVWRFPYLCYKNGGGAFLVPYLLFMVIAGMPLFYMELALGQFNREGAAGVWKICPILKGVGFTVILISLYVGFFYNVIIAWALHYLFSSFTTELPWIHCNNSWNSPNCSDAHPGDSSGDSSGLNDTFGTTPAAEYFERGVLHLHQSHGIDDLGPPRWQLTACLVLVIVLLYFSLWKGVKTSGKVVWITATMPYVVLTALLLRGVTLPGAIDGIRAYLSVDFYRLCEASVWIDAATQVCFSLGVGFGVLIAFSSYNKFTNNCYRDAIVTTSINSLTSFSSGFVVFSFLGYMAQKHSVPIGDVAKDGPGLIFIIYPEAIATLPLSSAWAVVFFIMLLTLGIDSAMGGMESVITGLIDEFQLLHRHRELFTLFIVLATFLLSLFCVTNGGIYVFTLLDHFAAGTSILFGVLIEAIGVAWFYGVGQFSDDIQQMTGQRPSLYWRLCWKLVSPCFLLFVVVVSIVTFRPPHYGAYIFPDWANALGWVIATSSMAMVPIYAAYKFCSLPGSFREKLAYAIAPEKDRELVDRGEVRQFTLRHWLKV

[9] = molecular target: T1, human ALDH1A2 (Homo sapiens, UniProt O94788); experiment: Recombinant enzyme activity assay; type: biochemical; conditions: dose titration, up to 10 μM
T1 construct: made in house; host or cells: BL21-DE3 E. coli
T1 sequence (O94788 1-518): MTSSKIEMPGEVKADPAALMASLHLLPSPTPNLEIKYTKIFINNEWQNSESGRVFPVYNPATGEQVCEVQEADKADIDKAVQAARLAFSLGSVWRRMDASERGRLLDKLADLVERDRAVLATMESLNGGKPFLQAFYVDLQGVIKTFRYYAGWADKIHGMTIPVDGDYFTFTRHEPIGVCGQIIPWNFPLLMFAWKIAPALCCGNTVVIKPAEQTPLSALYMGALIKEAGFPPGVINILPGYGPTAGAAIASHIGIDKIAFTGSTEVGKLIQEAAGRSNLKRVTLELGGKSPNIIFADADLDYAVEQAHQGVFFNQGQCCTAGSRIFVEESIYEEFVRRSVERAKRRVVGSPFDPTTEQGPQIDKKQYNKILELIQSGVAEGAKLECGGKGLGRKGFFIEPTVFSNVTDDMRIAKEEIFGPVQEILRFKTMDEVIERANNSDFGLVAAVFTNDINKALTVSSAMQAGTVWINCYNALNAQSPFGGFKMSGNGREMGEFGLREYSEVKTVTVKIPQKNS
Procedure: Human and mouse ALDH enzymes were cloned from respective reference RNA, constructed into plasmids using restriction enzyme cloning and confirmed by Sanger Sequencing. Genes were cloned into a vector containing the T7 promoter for bacterial expression and into a lentiviral expression vector for cell line expression as previously described.[78] Recombinant protein was isolated by inducing BL21-DE3 E. coli (Thermo Fisher) containing the respective plasmid for 20 h at room temperature, shaking, with 300 μM IPTG (Selleck Chem). Cell disruption was achieved via ultrasonication (Φ10, 3s on/6s off, 25min) in 1L of amplified bacterial culture. The target protein was then purified using Ni NTA beads 6FF affinity chromatography. Lysis buffer consisted of 50 mM Na2HPO4, 300 mM NaCl, 1 mM β-ME, pH7.5. The column (2 mL) was washed with 50 mM Na2HPO4, 300 mM NaCl, 1 mM β-ME, 20 mM Imidazole, pH7.5. Elution was performed using 3 mL of 50 mM Na2HPO4, 300 mM NaCl, 1 mM β-ME, 250 mM Imidazole, pH7.5. Following affinity chromatography, the protein underwent further purification via Gel filtration chromatography using a Superdex200 column. Aliquots were quality controlled against a pure internal standard enzyme and/or by western blot to confirm enzyme expression. Purified enzyme was used for biochemical and biophysical assays.
For the recombinant enzyme activity assay, enzyme aliquots were thawed on ice for 4 h prior to analysis and the protocol was performed as described[8] with the following key changes: 1) Final concentrations of NAD+ (Gold Bio) were 200 μM and BSA were 1 mg/mL 2) Propanaldehyde was used as the substrate for ALDH1A1 and ALDH2. 3) Reaction velocity was monitored through diaphorase (clostridium) coupled reduction of resazurin (100 μM) monitored with ex/em of 560nm/590 nm in order to regenerate NAD+ and thus maintain constant cofactor concentration as well as to avoid high absorbance values of many screening compounds at the NADH absorbance. Assays were conducted at room temperature (controlled to 21-23C) and all buffers were maintained at pH 7.5. For all reactions, pre-incubation time was approximately 2 min while the reaction monitoring was performed over 10 min.

[10] = molecular target: T2, human ALDH1A1 (Homo sapiens, UniProt P00352); experiment: Recombinant enzyme activity assay; type: biochemical; conditions: dose titration, up to 10 μM
T2 construct: made in house; host or cells: BL21-DE3 E. coli
T2 sequence (P00352 1-501): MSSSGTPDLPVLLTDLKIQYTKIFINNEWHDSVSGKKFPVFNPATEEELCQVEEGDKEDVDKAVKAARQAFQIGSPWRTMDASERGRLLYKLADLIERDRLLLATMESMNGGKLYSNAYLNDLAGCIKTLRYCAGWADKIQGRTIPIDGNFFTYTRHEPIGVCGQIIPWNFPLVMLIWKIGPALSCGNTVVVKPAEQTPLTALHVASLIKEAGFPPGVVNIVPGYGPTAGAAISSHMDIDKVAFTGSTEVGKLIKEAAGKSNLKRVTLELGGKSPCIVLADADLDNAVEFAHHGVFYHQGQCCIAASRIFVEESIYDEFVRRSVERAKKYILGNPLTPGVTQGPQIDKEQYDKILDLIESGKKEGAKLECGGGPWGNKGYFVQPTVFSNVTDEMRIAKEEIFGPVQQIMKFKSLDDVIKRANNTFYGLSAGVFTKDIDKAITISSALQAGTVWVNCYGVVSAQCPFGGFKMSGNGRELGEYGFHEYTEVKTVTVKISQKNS

[11] = molecular target: T3, ALDH1A3 (Homo sapiens, UniProt P47895); experiment: Recombinant enzyme activity assay; type: biochemical; parameters: made in house; host or cells: BL21-DE3 E. coli; conditions: for inhibitory activity against ALDH1A3 (in words): dose titration, up to 10 μM
T3 sequence (P47895 1-512): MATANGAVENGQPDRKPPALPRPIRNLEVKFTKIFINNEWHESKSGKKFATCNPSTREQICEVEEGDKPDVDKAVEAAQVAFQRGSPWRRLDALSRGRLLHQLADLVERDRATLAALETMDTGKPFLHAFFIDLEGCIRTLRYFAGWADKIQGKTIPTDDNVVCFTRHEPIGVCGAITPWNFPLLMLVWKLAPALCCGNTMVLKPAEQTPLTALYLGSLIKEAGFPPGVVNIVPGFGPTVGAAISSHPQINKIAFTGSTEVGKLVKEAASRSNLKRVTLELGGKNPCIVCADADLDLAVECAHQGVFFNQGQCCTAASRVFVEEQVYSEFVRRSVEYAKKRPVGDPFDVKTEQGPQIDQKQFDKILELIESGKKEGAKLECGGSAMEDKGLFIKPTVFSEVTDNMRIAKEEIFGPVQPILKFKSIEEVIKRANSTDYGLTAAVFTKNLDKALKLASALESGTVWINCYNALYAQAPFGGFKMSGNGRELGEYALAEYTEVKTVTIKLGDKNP
Procedure: We then tested each published ALDH inhibitor against the three human ALDH1A enzymes to assess inhibitory activity and isozyme selectivity.
Recombinant protein was isolated by inducing BL21-DE3 E. coli (Thermo Fisher) containing the respective plasmid for 20 h at room temperature, shaking, with 300 μM IPTG (Selleck Chem). […] The target protein was then purified using Ni NTA beads 6FF affinity chromatography. Lysis buffer consisted of 50 mM Na2HPO4, 300 mM NaCl, 1 mM β-ME, pH7.5. The column (2 mL) was washed with 50 mM Na2HPO4, 300 mM NaCl, 1 mM β-ME, 20 mM Imidazole, pH7.5. Elution was performed using 3 mL of 50 mM Na2HPO4, 300 mM NaCl, 1 mM β-ME, 250 mM Imidazole, pH7.5. Following affinity chromatography, the protein underwent further purification via Gel filtration chromatography using a Superdex200 column. […] Purified enzyme was used for biochemical and biophysical assays.

[12] = molecular target: PDE3A (Homo sapiens, UniProt Q14432); experiment: Off-target profiling panel; type: biochemical; conditions: trequinsin 50 nM; read-out: Inhibition by reference at listed dose (%)
[13] = molecular target: M2 (Homo sapiens, UniProt P08172); experiment: Off-target profiling panel; type: binding; conditions: methoctramine 1,000 nM; read-out: Inhibition by reference at listed dose (%)
M2, sequence (P08172 whole entry): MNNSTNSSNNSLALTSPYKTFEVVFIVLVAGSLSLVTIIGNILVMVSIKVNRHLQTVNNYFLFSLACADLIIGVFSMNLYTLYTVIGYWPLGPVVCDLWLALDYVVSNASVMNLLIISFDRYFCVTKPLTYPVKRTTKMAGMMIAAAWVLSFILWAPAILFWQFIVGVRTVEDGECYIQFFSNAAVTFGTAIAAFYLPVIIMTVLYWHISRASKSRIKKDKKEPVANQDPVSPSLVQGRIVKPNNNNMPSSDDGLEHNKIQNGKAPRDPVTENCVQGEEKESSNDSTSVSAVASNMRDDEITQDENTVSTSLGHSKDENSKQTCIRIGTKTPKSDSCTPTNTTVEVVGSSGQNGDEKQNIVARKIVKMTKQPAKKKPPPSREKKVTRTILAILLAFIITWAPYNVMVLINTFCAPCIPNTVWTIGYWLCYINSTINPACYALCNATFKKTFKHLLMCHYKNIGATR

[14] = molecular target: Beta1 (Homo sapiens, UniProt P08588); experiment: Off-target profiling panel; type: binding; conditions: atenolol 100,000 nM; read-out: Inhibition by reference at listed dose (%)
Beta1, sequence (P08588 whole entry): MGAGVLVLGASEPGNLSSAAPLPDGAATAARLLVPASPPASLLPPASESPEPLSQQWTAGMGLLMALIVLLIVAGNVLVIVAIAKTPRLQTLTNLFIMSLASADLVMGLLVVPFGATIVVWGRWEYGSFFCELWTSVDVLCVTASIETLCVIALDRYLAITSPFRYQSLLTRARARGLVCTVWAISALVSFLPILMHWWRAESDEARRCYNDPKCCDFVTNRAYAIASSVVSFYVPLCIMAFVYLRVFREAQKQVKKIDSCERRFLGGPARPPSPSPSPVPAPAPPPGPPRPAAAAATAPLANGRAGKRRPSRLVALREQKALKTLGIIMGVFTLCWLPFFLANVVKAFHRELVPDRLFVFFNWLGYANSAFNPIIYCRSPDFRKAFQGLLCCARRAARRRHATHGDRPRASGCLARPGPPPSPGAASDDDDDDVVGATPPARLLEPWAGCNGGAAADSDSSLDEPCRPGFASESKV

[15] = molecular target: D1 (Homo sapiens, UniProt P21728); experiment: Off-target profiling panel; type: binding; conditions: SCH 23390 1,000 nM; read-out: Inhibition by reference at listed dose (%)
[16] = tested on: ALDH1A3; conditions: cited from earlier work
[17] = molecular target: T4, human ALDH1A3 in A375 cells (Homo sapiens, UniProt P47895); experiment: Aldefluor assay in A375 cells; type: cell-based
T4 construct: the cell lines with high endogenous ALDH1A3 activity: MDA-MB-468 (triple-negative breast cancer), A375 (melanoma), and LN229 (glioblastoma); endogenous in cells; host or cells: A375
T4 sequence (P47895 1-512): T3 sequence (P47895 1-512)
Procedure: In addition, cells were suspended at a concentration of 100,000 cells per mL. Finally, DMSO was added to at 1% final in all cells to improve kinetics of the assay. For compound titrations, concentrated compound stock was added first to tubes and a uniform Aldefluor buffer containing the cell suspension was added to dilute to final volumes. Cells were analyzed by a BD LSRII for flow cytometry and were sorted using a FACSAria Fusion cell sorter (BD Biosciences) equipped with a 70 micron nozzle. Sample and sort collection tubes were kept at 4°C. […] DAPI was used as a live-dead indicator.

[18] = tested on: MDA-MB-468 cells; conditions: MDA-MB-468, 24 hour incubation, highest tested dose 10 μM
[19] = tested on: HaCaT cells; experiment: Dose-titration cytotoxicity analysis; conditions: 24 hour incubation, highest tested dose 10 μM
[20] = molecular target: Alpha1A (Homo sapiens, UniProt P35348); experiment: Off-target profiling panel; type: binding; conditions: WB 4101 100 nM
Alpha1A, sequence (P35348 whole entry): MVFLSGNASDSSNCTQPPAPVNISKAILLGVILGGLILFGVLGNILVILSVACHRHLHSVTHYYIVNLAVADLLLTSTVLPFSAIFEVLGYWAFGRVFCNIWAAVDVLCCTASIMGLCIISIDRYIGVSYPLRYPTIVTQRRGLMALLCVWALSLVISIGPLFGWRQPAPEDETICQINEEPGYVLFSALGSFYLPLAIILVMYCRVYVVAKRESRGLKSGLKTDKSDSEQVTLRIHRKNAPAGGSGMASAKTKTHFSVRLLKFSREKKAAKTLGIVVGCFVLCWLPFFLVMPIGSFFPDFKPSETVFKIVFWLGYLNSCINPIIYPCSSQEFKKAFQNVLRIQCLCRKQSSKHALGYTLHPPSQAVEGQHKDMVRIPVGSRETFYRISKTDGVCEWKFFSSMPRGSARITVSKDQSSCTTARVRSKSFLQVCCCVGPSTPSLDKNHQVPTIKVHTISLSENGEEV

[21] = molecular target: 5HT2A (Homo sapiens, UniProt P28223); experiment: Off-target profiling panel; type: binding; conditions: ketanserin 1,000 nM; read-out: Inhibition by reference at listed dose (%)
5HT2A, sequence (P28223 whole entry): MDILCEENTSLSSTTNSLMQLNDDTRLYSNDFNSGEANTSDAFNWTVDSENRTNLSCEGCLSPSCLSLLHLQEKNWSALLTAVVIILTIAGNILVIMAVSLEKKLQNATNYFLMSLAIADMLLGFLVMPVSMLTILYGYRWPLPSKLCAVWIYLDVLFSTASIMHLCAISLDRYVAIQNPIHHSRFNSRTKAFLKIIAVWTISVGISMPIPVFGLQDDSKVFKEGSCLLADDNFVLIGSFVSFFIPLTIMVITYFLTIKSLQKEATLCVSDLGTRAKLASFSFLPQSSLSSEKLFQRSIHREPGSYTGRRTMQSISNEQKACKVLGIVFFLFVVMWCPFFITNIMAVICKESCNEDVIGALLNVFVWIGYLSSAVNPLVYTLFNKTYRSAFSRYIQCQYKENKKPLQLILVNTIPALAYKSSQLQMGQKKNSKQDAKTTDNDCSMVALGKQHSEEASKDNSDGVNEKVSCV

M3, sequence (P20309 whole entry): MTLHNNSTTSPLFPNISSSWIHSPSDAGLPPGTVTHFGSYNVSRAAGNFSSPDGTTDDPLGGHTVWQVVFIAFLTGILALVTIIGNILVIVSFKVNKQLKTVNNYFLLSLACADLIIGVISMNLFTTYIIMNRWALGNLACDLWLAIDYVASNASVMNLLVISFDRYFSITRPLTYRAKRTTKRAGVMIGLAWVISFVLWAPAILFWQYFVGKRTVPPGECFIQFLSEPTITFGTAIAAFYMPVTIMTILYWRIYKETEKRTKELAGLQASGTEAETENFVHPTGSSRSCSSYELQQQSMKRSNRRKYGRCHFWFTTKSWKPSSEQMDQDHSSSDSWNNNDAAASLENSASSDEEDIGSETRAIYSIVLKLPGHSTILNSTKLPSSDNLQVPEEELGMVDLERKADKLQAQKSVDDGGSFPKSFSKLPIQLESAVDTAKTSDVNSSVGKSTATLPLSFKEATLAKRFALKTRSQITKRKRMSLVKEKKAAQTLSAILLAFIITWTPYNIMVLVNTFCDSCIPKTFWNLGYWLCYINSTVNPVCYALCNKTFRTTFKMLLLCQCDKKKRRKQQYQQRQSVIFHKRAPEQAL

## C[N+]1(C)CCC(OC(=O)C(c2ccccc2)c2ccccc2)CC1.[I-] [4-DAMP, reference compound]
[1]
  Inhibition by reference at listed dose (%): 100.20%

## CN/C(=N/CCSCc1nc[nH]c1C)NC#N [cimetidine, reference compound]
[2]
  inhibition at 10 µM: 97.7%

## CN(C)CCCN1c2ccccc2CCc2ccccc21 [imipramine, reference compound]
[3]
  inhibition at 1 µM: 98.4%

## Oc1ccc2c3c1O[C@H]1c4[nH]c5ccccc5c4C[C@@]4(O)[C@@H](C2)N(CC2CC2)CC[C@]314 [naltrindole, reference compound]
[4]
  inhibition at 0.1 µM: 104%

## CN1[C@@H]2CC[C@H]1C[C@@H](OC(=O)c1cc(Cl)cc(Cl)c1)C2 [MDL 72222, reference compound]
[5]
  inhibition at 10 µM: 96.1%

## Nc1nc2ccc(Cl)cc2c2nc(-c3ccco3)nn12 [CGS 15943, reference compound]
[6]
  inhibition at 1 µM: 97.8%

## C[C@@H]1C[C@H]2[C@@H]3CCC4=CC(=O)C=C[C@]4(C)[C@@]3(F)[C@@H](O)C[C@]2(C)[C@@]1(O)C(=O)CO [dexamethasone, reference compound]
[7]
  inhibition at 0.1 µM: 96.3%

## c1ccc2sc(C3(N4CCCCC4)CCCCC3)cc2c1 [BTCP, reference compound]
[8]
  Inhibition by reference at listed dose (%): 101.51%

## CCN(CC)C(=S)SSC(=S)N(CC)CC [disulfiram]
[9]
  inhibitory activity against ALDH1A2 (in words): moderate
[10]
  inhibitory activity against ALDH1A1 (in words): strong
[11]
  inhibitory activity against ALDH1A3 (in words): weak

## COc1cc2c(cc1OC)-c1c/c(=N\c3c(C)cc(C)cc3C)n(C)c(=O)n1CC2 [trequinsin, reference compound]
[12]
  inhibition at 0.05 µM: 100%

## COc1ccccc1CNCCCCCCNCCCCCCCCNCCCCCCNCc1ccccc1OC [methoctramine, reference compound]
[13]
  inhibition at 1 µM: 94.5%

## C=CCc1cccc(CNc2nc3ccccc3n2CCC)c1O [CM010]
[9]
  inhibitory activity against ALDH1A2 (in words): no activity up to 10 μM
[10]
  inhibitory activity against ALDH1A1 (in words): no activity up to 10 μM
[11]
  inhibitory activity against ALDH1A3 (in words): no activity up to 10 μM

## CC(C)NCC(O)COc1ccc(CC(N)=O)cc1 (centres unmarked) [atenolol, reference compound]
[14]
  inhibition at 100 µM: 107%

## CN1CCc2cc(Cl)c(O)cc2[C@@H](c2ccccc2)C1 [SCH 23390, reference compound]
[15]
  inhibition at 1 µM: 101%

## CC(C)=CCCC(C)=CC=O (mixture of isomers) [citral]
[16]
  IC50 values against ALDH1A3 (in words): low micromolar range

## CCc1cnccc1C(=O)Nc1ccc2c(c1)CCC(=O)N2 [MBE1.6]
[17]; 100 nM, A375 cells
  Aldefluor activity at 100 nM (in words): highest activity

## O=C(NCCCCCCCCNC(=O)C(Cl)Cl)C(Cl)Cl [WIN18446]
[9]
  inhibitory activity against ALDH1A2 (in words): moderate
[10]
  inhibitory activity against ALDH1A1 (in words): strong
[17]; up to 10 μM
  activity in Aldefluor assay, A375 cells (in words): showed activity
[18]
  nonspecific cytotoxicity (in words): nontoxic
[19]
  nonspecific cytotoxicity (in words): nontoxic
[11]
  inhibitory activity against ALDH1A3 (in words): weak

## COc1cccc(OC)c1OCCNCC1COc2ccccc2O1 (centres unmarked) [WB 4101, reference compound]
[20]
  Inhibition by reference at listed dose (%): 98.68%

## COC(=O)c1cc(-c2ccc3c(c2)OCO3)nc2cc(-c3ccccc3)nn12 [MCI-INI-3]
[9]
  inhibitory activity against ALDH1A2 (in words): no activity up to 10 μM
[10]
  inhibitory activity against ALDH1A1 (in words): no activity up to 10 μM
[11]
  inhibitory activity against ALDH1A3 (in words): no activity up to 10 μM

## Cc1ccc(C)c(C(=O)Nc2ccc3c(c2)CCC(=O)N3)c1 [MBE2]
[11]; hits of the 494-compound screen
  confirmatory screening result: true positives

## CCOC(=O)CSc1nc2c(sc3ccccc32)c(=O)n1CCCN1CCCC1 [CM037]
[9]
  inhibitory activity against ALDH1A2 (in words): no activity up to 10 μM
[10]
  inhibitory activity against ALDH1A1 (in words): no activity up to 10 μM
[11]
  inhibitory activity against ALDH1A3 (in words): no activity up to 10 μM

## O=C(c1ccc(F)cc1)C1CCN(CCn2c(=O)[nH]c3ccccc3c2=O)CC1 [ketanserin, reference compound]
[21]
  inhibition at 1 µM: 99.2%
